The values below are quoted from earlier work in US12685722B2, “Compositions of matter and pharmaceutical compositions” (Atai Therapeutics, Inc., priority 2020, dated 2026).

As to `CN(C)CCc1c[nH]c2cccc(O)c12` [psilocin], the in vivo half-life result is “about 50 minutes”. The psychedelic experiences lasting (in vivo) is 4 to 6 h.
